According to patent publication US7754896B2, “Indol-alanine derivatives as selective S1P4-agonists” (Novartis AG, priority 2004, dated 2010):

Legend:
Assay type in all cases: cell-based
S1P3 = target: T1, S1P3 (Homo sapiens, UniProt Q99500); test: Calcium mobilization assay, CHO cells expressing S1P3
T1 construct: expressed in transfected cells
From the text: (§1) Human S1P1 (GenBank™ accession number M31210) and S1P3 (GenBank™ accession number X83864) cDNA containing the myc sequence in front to the human S1P1 and S1P3 sequences are inserted in the pcDNA 3.1 vector. The vectors are sequenced to completion to confirm the correctness of the construct. The human S1P2 (GI: 4090955, TREMBL: 0195136) is cloned by a PCR based method. Lung cDNA (marathon cDNA) is obtained (BD Biosciences Chontech, Palo Alto, Calif. 94303, USA). […] The amplified product of around 1100 bp is analyzed by standard agarose gel-electrophoresis. […]
(§2) CHO cells are plated in black Costar plate (96 or 384 well, 50,000 cells or 12,500 cells, respectively) in a MEM with FCS and cultured for 20-24 h at 37° C. in a CO2 incubator. […] After measuring the baseline for 40 sec, the agonist in HBSS is added and the fluorescence is measured at intervals of 2 sec for 3 to 5 min. […]
(§3) The compounds mentioned in this application are tested for specificity, e.g. the activity they have in the parental cell line prior transformation with the S1P4 cDNA and for selectivity on CHO cells lines transformed with the S1P1, S1P2, S1P3, and S1P5. […] For example, S1P4 specific and selective compounds may have an EC50 (apparent EC50) measured at S1P4 that is 10×, preferably 100× lower that that measured in wild type CHO cells or In cell expressing any of the other four S1P receptors.

S1P5 = target: T2, S1P5 (Homo sapiens, UniProt Q9H228); test: Calcium mobilization assay, CHO cells expressing S1P5
T2 construct: expressed in transfected cells
T2 sequence (Q9H228 whole entry): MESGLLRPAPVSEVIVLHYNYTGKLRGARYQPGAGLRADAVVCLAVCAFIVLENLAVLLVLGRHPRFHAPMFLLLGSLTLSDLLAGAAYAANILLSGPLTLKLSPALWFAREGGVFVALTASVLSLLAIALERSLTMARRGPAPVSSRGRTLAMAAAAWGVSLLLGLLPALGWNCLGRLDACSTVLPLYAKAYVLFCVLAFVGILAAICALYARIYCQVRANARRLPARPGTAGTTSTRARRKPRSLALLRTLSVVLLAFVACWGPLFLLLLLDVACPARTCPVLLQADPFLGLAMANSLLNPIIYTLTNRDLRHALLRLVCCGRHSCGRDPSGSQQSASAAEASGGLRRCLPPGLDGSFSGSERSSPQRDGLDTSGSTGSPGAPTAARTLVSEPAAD
From the text: The human S1P5 (GI: 30171332 or GenBank™ accession number AY262689, TREMBL: Q9H228) is cloned by a PCR based method. Lung and spleen cDNA (marathon cDNA) is obtained from BD Biosciences Chlontech (BD Biosciences Chlontech, Palo Alto, Calif. 94303, USA); genomic DNA is isolated from HeLa cells using standard procedures. Following oligonucleotides are used for the PCR reaction: forward primer CACCATGGAGTCGGGGCTGCTGCG (−4 to 20, GenBank™ accession number AY262689) and reverse primer 5′-TCAGTCTGCAGCCGGTTCTGATACCAGAGTC (1197 to 1131, AY262689), the initiation of the translation (ATG) and the stop codon are underlined. […] The amplified product of around 1100 bp is analyzed by standard agarose gel-electrophoresis. […]
as §2

S1P2 = target: T3, S1P2 (Homo sapiens, UniProt O95136); test: Calcium mobilization assay, CHO cells expressing S1P2
T3 construct: expressed in transfected cells
T3 sequence (O95136 whole entry): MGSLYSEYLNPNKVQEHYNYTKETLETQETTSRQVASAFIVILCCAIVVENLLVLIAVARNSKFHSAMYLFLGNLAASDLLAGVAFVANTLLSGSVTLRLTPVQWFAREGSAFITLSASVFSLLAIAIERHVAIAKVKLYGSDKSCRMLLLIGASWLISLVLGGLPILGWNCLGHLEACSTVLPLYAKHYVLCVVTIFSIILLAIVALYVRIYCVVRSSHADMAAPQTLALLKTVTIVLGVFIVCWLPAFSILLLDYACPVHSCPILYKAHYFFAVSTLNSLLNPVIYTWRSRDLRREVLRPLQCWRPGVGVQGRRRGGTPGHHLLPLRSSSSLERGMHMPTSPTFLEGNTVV
From the text: as §1, §2, §3

S1P1 = target: T4, S1P1 (Homo sapiens, UniProt P21453); test: Calcium mobilization assay, CHO cells expressing S1P1
T4 construct: expressed in transfected cells
T4 sequence (P21453 whole entry): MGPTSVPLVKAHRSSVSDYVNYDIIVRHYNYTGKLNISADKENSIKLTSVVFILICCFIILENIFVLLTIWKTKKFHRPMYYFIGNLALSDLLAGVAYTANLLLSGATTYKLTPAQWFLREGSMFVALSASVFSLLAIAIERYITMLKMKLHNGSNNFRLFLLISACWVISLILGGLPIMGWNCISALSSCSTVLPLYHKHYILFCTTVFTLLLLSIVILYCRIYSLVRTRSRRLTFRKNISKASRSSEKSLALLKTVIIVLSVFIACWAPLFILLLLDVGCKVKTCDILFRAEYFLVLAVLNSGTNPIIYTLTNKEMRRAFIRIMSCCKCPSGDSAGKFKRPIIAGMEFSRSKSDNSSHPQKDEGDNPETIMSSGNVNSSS
From the text: as §1, §2, §3

T1 sequence (Q99500 whole entry): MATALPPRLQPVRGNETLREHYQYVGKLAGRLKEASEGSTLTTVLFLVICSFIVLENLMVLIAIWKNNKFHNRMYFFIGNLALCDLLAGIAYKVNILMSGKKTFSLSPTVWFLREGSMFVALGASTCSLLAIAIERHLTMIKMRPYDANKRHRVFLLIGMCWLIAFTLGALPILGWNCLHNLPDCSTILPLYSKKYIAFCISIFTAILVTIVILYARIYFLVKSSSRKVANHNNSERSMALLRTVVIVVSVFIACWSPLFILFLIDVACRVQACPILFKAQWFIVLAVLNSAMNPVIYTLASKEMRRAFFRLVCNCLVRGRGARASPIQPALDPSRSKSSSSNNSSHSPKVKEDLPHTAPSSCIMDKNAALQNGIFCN

## NC(CNC(=O)c1cc2c(-c3ccccc3Cc3ccccc3)cccc2[nH]1)C(=O)O (stereo not shown) [Example 2]
S1P3
  EC50: > 6 µM
S1P5
  EC50: 2.4 µM
S1P2
  EC50: > 6 µM
S1P1
  EC50: > 6 µM
